In paper PMC3973950, “Synthesis of 5-arylidine amino-1,3,4-thiadiazol-2-[(N-substituted benzyol)]sulphonamides endowed with potent antioxidants and anticancer activity induces growth inhibition in HEK293, BT474 and NCI-H226 cells” (Medicinal Chemistry Research, 2013):

tested on: NCI-H226 (lung cancer cell line); experiment: In vitro cytotoxicity by MTT assay, NCI-H226; type: cell-based; details: Homo sapiens, NCI-H226, 0.005 μM, 72 h, read-out: % Cytotoxicity (100 − % cell survival) of NCI-H226 cell line
Summary of the method: (§1)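 First, trypsinized cells went into wells at roughly 10,000 per well for 24 h. Next, medium was replaced with test compounds for 72 h at 37 °C. Finally, MTT was added for 4 h and the propanol-solubilized formazan read at 490 nm.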

| Compound | cytotoxicity at 0.005 µM |
| --- | --- |
| COc1ccc(C=Nc2nnc(S(=O)(=O)NC(=O)c3ccccc3)s2)cc1 [Compound 9d, N-({5-[(4-Methoxybenzylidene)amino]-1,3,4-thiadiazol-2-yl}sulfonyl)benzamide] | 35.6% |

same assay, conditions: Homo sapiens, NCI-H226, 0.045 μM, 72 h, read-out: % Cytotoxicity (100 − % cell survival) of NCI-H226 cell line

| Compound | cytotoxicity at 0.045 µM |
| --- | --- |
| COc1ccc(C=Nc2nnc(S(=O)(=O)NC(=O)c3ccccc3)s2)cc1 [Compound 9d, N-({5-[(4-Methoxybenzylidene)amino]-1,3,4-thiadiazol-2-yl}sulfonyl)benzamide] | 37.5% |

same assay, conditions: Homo sapiens, NCI-H226, 0.13 μM, 72 h, read-out: % Cytotoxicity (100 − % cell survival) of NCI-H226 cell line

| Compound | cytotoxicity at 0.13 µM |
| --- | --- |
| COc1ccc(C=Nc2nnc(S(=O)(=O)NC(=O)c3ccccc3)s2)cc1 [Compound 9d, N-({5-[(4-Methoxybenzylidene)amino]-1,3,4-thiadiazol-2-yl}sulfonyl)benzamide] | 38.3% |

same assay, conditions: Homo sapiens, NCI-H226, 0.41 μM, 72 h, read-out: % Cytotoxicity (100 − % cell survival) of NCI-H226 cell line

| Compound | cytotoxicity at 0.41 µM |
| --- | --- |
| COc1ccc(C=Nc2nnc(S(=O)(=O)NC(=O)c3ccccc3)s2)cc1 [Compound 9d, N-({5-[(4-Methoxybenzylidene)amino]-1,3,4-thiadiazol-2-yl}sulfonyl)benzamide] | 40.6% |

same assay, conditions: Homo sapiens, NCI-H226, 1.23 μM, 72 h, read-out: % Cytotoxicity (100 − % cell survival) of NCI-H226 cell line

| Compound | cytotoxicity at 1.23 µM |
| --- | --- |
| COc1ccc(C=Nc2nnc(S(=O)(=O)NC(=O)c3ccccc3)s2)cc1 [Compound 9d, N-({5-[(4-Methoxybenzylidene)amino]-1,3,4-thiadiazol-2-yl}sulfonyl)benzamide] | 41.2% |

same assay, conditions: Homo sapiens, NCI-H226, 3.7 μM, 72 h, read-out: % Cytotoxicity (100 − % cell survival) of NCI-H226 cell line

| Compound | cytotoxicity at 3.7 µM |
| --- | --- |
| COc1ccc(C=Nc2nnc(S(=O)(=O)NC(=O)c3ccccc3)s2)cc1 [Compound 9d, N-({5-[(4-Methoxybenzylidene)amino]-1,3,4-thiadiazol-2-yl}sulfonyl)benzamide] | 43.1% |

same assay, conditions: Homo sapiens, NCI-H226, 11.11 μM, 72 h, read-out: % Cytotoxicity (100 − % cell survival) of NCI-H226 cell line

| Compound | cytotoxicity at 11.11 µM |
| --- | --- |
| COc1ccc(C=Nc2nnc(S(=O)(=O)NC(=O)c3ccccc3)s2)cc1 [Compound 9d, N-({5-[(4-Methoxybenzylidene)amino]-1,3,4-thiadiazol-2-yl}sulfonyl)benzamide] | 47.8% |

same assay, conditions: Homo sapiens, NCI-H226, 33.33 μM, 72 h, read-out: % Cytotoxicity (100 − % cell survival) of NCI-H226 cell line

| Compound | cytotoxicity at 33.33 µM |
| --- | --- |
| COc1ccc(C=Nc2nnc(S(=O)(=O)NC(=O)c3ccccc3)s2)cc1 [Compound 9d, N-({5-[(4-Methoxybenzylidene)amino]-1,3,4-thiadiazol-2-yl}sulfonyl)benzamide] | 48.2% |

same assay, conditions: Homo sapiens, NCI-H226, 100 μM, 72 h, read-out: % Cytotoxicity (100 − % cell survival) of NCI-H226 cell line

| Compound | cytotoxicity at 100 µM |
| --- | --- |
| COc1ccc(C=Nc2nnc(S(=O)(=O)NC(=O)c3ccccc3)s2)cc1 [Compound 9d, N-({5-[(4-Methoxybenzylidene)amino]-1,3,4-thiadiazol-2-yl}sulfonyl)benzamide] | 53% |

tested on: not listed separately; experiment: In vitro cytotoxicity by MTT assay, NCI-H226; type: cell-based; details: human, NCI-H226 lung cancer cells, 0.015 μM, read-out: % Cytotoxicity (100 − % cell survival) of NCI-H226 cell line
Summary of the method: as §1

| Compound | cytotoxicity at 72 h, 0.015 µM |
| --- | --- |
| COc1ccc(C=Nc2nnc(S(=O)(=O)NC(=O)c3ccccc3)s2)cc1 [Compound 9d, N-({5-[(4-Methoxybenzylidene)amino]-1,3,4-thiadiazol-2-yl}sulfonyl)benzamide] | 36.3% |

tested on: root meristem cells of Allium cepa; experiment: In vitro antimitotic activity and cytogenetic analysis, Allium cepa meristem root model; type: cell-based; details: compounds 1 mg/mL, PC (EMS) 2 × 10^−2 M
Summary of the method: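 Onion roots (about 2–2.5 cm, five bulbs per sample) exposed to compound at 1 mg/mL at 22 ± 1 °C, with distilled water as negative and EMS (2 × 10^−2 M) as positive control. After 24 h, orcein-stained root tips were scored for mitotic index, chromatin aberrations and micronuclei per 1,000 cells. Root length at 72 h served as the general toxicity index, expressed as percentage of controls.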

| Aberrant cells (%) ± SEM | Chromosome breaks (%) ± SEM | Polar deviations (%) ± SEM | Stickiness (%) ± SEM | Compound | MNC (‰) ± SEM (micronuclei per 1,000 cells) |
| --- | --- | --- | --- | --- | --- |
| 25.33 ± 9.42% | 0.96 ± 0.46% | 9.15 ± 6.92% | 14.48 ± 2.52% | COc1ccc(C=Nc2nnc(S(=O)(=O)NC(=O)c3ccccc3)s2)cc1 [Compound 9d, N-({5-[(4-Methoxybenzylidene)amino]-1,3,4-thiadiazol-2-yl}sulfonyl)benzamide] | 0.51 ± 0.17 ‰ |

same assay, conditions: compounds 1 mg/mL, PC (EMS) 2 × 10^−2 M; lower MI = higher activity; negative control 6.22

| Compound | MI (%) ± SEM (mitotic index) |
| --- | --- |
| COc1ccc(C=Nc2nnc(S(=O)(=O)NC(=O)c3ccccc3)s2)cc1 [Compound 9d, N-({5-[(4-Methoxybenzylidene)amino]-1,3,4-thiadiazol-2-yl}sulfonyl)benzamide] | 2.34 ± 0.19% |

tested on: not listed separately; experiment: Superoxide anion radical scavenging (NBT/NADH/PMS); type: biochemical; details: Conc. ± SD; standard catechin; read-out: IC50 inhibitory concentration, Superoxide anion
Experimental: Measurement of superoxide anion scavenging activity of the synthesized compound was taken based on the method described by Nishimiki et al. ([1972]) and slightly modified. […] The reaction mixture was incubated at 25 °C for 5 min, and the absorbance at 560 nm was measured against blank samples. Catechin was used as reference compound. All the experiments were performed in triplicate, and the results were averaged. The percentage of inhibition was determined by comparing the results of control and test samples. The IC50 (nM/mL) value are depicted in Table 1.

| IC50 | Compound |
| --- | --- |
| 74.5 ± 8.3 µM | COc1ccc(C=Nc2nnc(S(=O)(=O)NC(=O)c3ccccc3)s2)cc1 [Compound 9d, N-({5-[(4-Methoxybenzylidene)amino]-1,3,4-thiadiazol-2-yl}sulfonyl)benzamide] |

tested on: not given; experiment: not given; details: not given

| melting point | Compound |
| --- | --- |
| 215 to 217 °C | COc1ccc(C=Nc2nnc(S(=O)(=O)NC(=O)c3ccccc3)s2)cc1 [Compound 9d, N-({5-[(4-Methoxybenzylidene)amino]-1,3,4-thiadiazol-2-yl}sulfonyl)benzamide] |

tested on: not listed separately; experiment: In vitro cytotoxicity by MTT assay, HEK 293; type: cell-based, human; details: human, HEK 293 cells, 0.005 μM, read-out: % cytotoxicity (100 − % cell survival) of HEK 293 cell line
Summary of the method: as §1

| Compound | cytotoxicity at 72 h, 0.005 µM |
| --- | --- |
| COc1ccc(C=Nc2nnc(S(=O)(=O)NC(=O)c3ccccc3)s2)cc1 [Compound 9d, N-({5-[(4-Methoxybenzylidene)amino]-1,3,4-thiadiazol-2-yl}sulfonyl)benzamide] | 30.6% |

same assay, conditions: human, HEK 293 cells, 0.015 μM, read-out: % cytotoxicity (100 − % cell survival) of HEK 293 cell line

| Compound | cytotoxicity at 72 h, 0.015 µM |
| --- | --- |
| COc1ccc(C=Nc2nnc(S(=O)(=O)NC(=O)c3ccccc3)s2)cc1 [Compound 9d, N-({5-[(4-Methoxybenzylidene)amino]-1,3,4-thiadiazol-2-yl}sulfonyl)benzamide] | 32.6% |

same assay, conditions: human, HEK 293 cells, 0.045 μM, read-out: % cytotoxicity (100 − % cell survival) of HEK 293 cell line

| Compound | cytotoxicity at 72 h, 0.045 µM |
| --- | --- |
| COc1ccc(C=Nc2nnc(S(=O)(=O)NC(=O)c3ccccc3)s2)cc1 [Compound 9d, N-({5-[(4-Methoxybenzylidene)amino]-1,3,4-thiadiazol-2-yl}sulfonyl)benzamide] | 33.9% |

same assay, conditions: human, HEK 293 cells, 0.13 μM, read-out: % cytotoxicity (100 − % cell survival) of HEK 293 cell line

| Compound | cytotoxicity at 72 h, 0.13 µM |
| --- | --- |
| COc1ccc(C=Nc2nnc(S(=O)(=O)NC(=O)c3ccccc3)s2)cc1 [Compound 9d, N-({5-[(4-Methoxybenzylidene)amino]-1,3,4-thiadiazol-2-yl}sulfonyl)benzamide] | 34.8% |

same assay, conditions: human, HEK 293 cells, 0.41 μM, read-out: % cytotoxicity (100 − % cell survival) of HEK 293 cell line

| Compound | cytotoxicity at 72 h, 0.41 µM |
| --- | --- |
| COc1ccc(C=Nc2nnc(S(=O)(=O)NC(=O)c3ccccc3)s2)cc1 [Compound 9d, N-({5-[(4-Methoxybenzylidene)amino]-1,3,4-thiadiazol-2-yl}sulfonyl)benzamide] | 34.8% |

same assay, conditions: human, HEK 293 cells, 1.23 μM, read-out: % cytotoxicity (100 − % cell survival) of HEK 293 cell line

| Compound | cytotoxicity at 72 h, 1.23 µM |
| --- | --- |
| COc1ccc(C=Nc2nnc(S(=O)(=O)NC(=O)c3ccccc3)s2)cc1 [Compound 9d, N-({5-[(4-Methoxybenzylidene)amino]-1,3,4-thiadiazol-2-yl}sulfonyl)benzamide] | 35.5% |

same assay, conditions: human, HEK 293 cells, 3.7 μM, read-out: % cytotoxicity (100 − % cell survival) of HEK 293 cell line

| Compound | cytotoxicity at 72 h, 3.7 µM |
| --- | --- |
| COc1ccc(C=Nc2nnc(S(=O)(=O)NC(=O)c3ccccc3)s2)cc1 [Compound 9d, N-({5-[(4-Methoxybenzylidene)amino]-1,3,4-thiadiazol-2-yl}sulfonyl)benzamide] | 35.8% |

same assay, conditions: human, HEK 293 cells, 11.11 μM, read-out: % cytotoxicity (100 − % cell survival) of HEK 293 cell line

| Compound | cytotoxicity at 72 h, 11.11 µM |
| --- | --- |
| COc1ccc(C=Nc2nnc(S(=O)(=O)NC(=O)c3ccccc3)s2)cc1 [Compound 9d, N-({5-[(4-Methoxybenzylidene)amino]-1,3,4-thiadiazol-2-yl}sulfonyl)benzamide] | 36.3% |

same assay, conditions: human, HEK 293 cells, 33.33 μM, read-out: % cytotoxicity (100 − % cell survival) of HEK 293 cell line

| Compound | cytotoxicity at 72 h, 33.33 µM |
| --- | --- |
| COc1ccc(C=Nc2nnc(S(=O)(=O)NC(=O)c3ccccc3)s2)cc1 [Compound 9d, N-({5-[(4-Methoxybenzylidene)amino]-1,3,4-thiadiazol-2-yl}sulfonyl)benzamide] | 38.2% |

same assay, conditions: human, HEK 293 cells, 100 μM, read-out: % cytotoxicity (100 − % cell survival) of HEK 293 cell line

| Compound | cytotoxicity at 72 h, 100 µM |
| --- | --- |
| COc1ccc(C=Nc2nnc(S(=O)(=O)NC(=O)c3ccccc3)s2)cc1 [Compound 9d, N-({5-[(4-Methoxybenzylidene)amino]-1,3,4-thiadiazol-2-yl}sulfonyl)benzamide] | 38.9% |
